Consider one compound from paper PMC8097335, “A High‐Affinity Calmodulin‐Binding Site in the CyaA Toxin Translocation Domain is Essential for Invasion of Eukaryotic Cells” (Advanced Science, 2021).

Molecules are shown by their SMILES.

Data set [1] in a line: Sedimentation velocity analytical ultracentrifugation. Format: physicochemical. The following applies: 57 µM peptide alone, 20 °C, buffer B. The source says:
400 nm at a scan rate of 100 nm/min, with an excitation wavelength of 280 nm. Fluorescence emission spectra were corrected for SUV or CaM baselines . Fluorescence intensity ratio at 330 nm over 370 nm was use d to measure the partition coefficient (K X) of peptides between the solution andmembrane s 1, 12 and the affinity (K d) of peptides for CaM 13.
Determination of partition coefficient KX and dissociation constant Kd from […]
The partition coefficient KX is defined as the ratio of protein in the lipid (PL) and in buffer […]
(PW) pha se s 12, 14, expressed by: KKXX = [LL ]? , giving[PPWW ] [PPWW ]= [WW], where [W] the […]
concentration of water (55.5 M) and [L] the lipid concentration. […]
The dissociation constant, Kd, is obtained from titration experiments of the P454-derived peptides by CaM and is expressed as follows: KK dd = [PP ]∗[CCCCCC ][PP:CCCCCC] , given KKdd[CCCCCC]= [PP ][PP :CCCCCC]and the fraction of complex, fP:CaM, i s: ffPP:CCCCCC = [PP :CCCCCC ][PP:CCCCCC]+[PP]= 11+ [PP ]= 11+ KKdd. […]
ratio 1:1 (at 70 µM each). […] Detection of protein concentration as a function of radial position and time was monitored with the ProteomeLab software (Beckman Coulter, […]
Brea, CA, USA) by both absorbance at 280 nm and interferometry. […] SV scans were analyzed using the continuous size distribution model c(s) of the software Sedfit 15. […]

Data set [2] in a line: Peptide titrations by SUVs followed by tryptophan fluorescence (solution-to-membrane partition). Format: physicochemical. In a few lines:
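Peptides were titrated with POPC:POPG (8:2) SUVs at 25°C, with tryptophan fluorescence excited at 280 nm and emission recorded 300–400 nm. The 330/370 nm intensity ratio, corrected for SUV baseline, was fitted to a partition model to obtain the solution-to-membrane partition coefficient KX.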

A short description of data set [3]: Membrane permeabilization of ANTS/DPX-loaded LUVs.
Description: To monitor membrane permeabilization induced by peptides, ANTS (fluorophore probe) and
DPX (quencher) were encapsulated into large unilamellar vesicles (LUVs). The LUVs were
prepared at a concentration of 10 mM lipid at a POPC:PO PG molar ratio of 8:2 containing 20
mM ANTS and 60 mM DPX. The multilamellar vesicle suspension was extrudedthrough 0.4-
and 0.2 μm polycarbonate filters to produce LUVs. The unencapsulated ANT S a nd DPX we re
removed by gel filtration with a 5 mL Sephadex G -25 column (GE Healthcare Life Sciences ).
For permeabilization assays, LUVs were incubated in buffer A at 0.45 mM lipid
concentration at 25°C in a 101-QS cuvette (Hellma, France) and under constant stirring.
excitation wavelength was set at 390 nm and the emission of ANTS was continuously
measured at 515 nm. The maximum intensity of permeabilization, corresponding to the
maximum recovery of ANTS fluorescence, was measured after addition of 0.1% of Triton
X100. The concentration of membrane-bound peptide s required to induce the recovery of half
intensity of the ANTS fluorescence (C P1/2) was extracted from the permeabilization intensity
a s a function of peptide concentration 1.
LUVs were incubated in buffer B at a lipid concentration of 0.45 mM.
After a few seconds of permeabilization,
holo-Ca M wa s added t o t he solution at a peptide:Ca M molar ratio of 1:3. EDT A wa s
subsequently added in excess to chelate calcium and convert holo -CaM to apo -C a M .
The nature of data set [4]: Synchrotron radiation circular dichroism, alpha-helical content (Bestsel). Format: physicochemical. The following applies: 25 °C, far-UV SRCD. The method, then:
Synchrotron Radiation Circular Dichroism
Synchrotron radiation circular dichroism (SRCD) was performed on the DISCO beamline of the synchrotron SOLEIL (Saint -Aubin, France) . Spectra were recorded at 25°C with an integration time of 1.2 s and a bandwidth of 1 nm with a resolution of 1 nm. A far-UV spectrum represents the average of four individual scans. QS cells (Hellma, France) with a pathlength of 20, 50, 100 or 200 μm (depending on final protein concentrations) were used to record spectra in the fa r -UV range (from 190 to 250 nm). CD spectra of peptides and proteins were measured in buffers A and B, 20% of trifluoroethanol (TFE), in the presence of SUVs (POPC :PO PG 8: 2) or Ca M. Secondary structure content was estimated using Bestsel software […]
Table S8: Estimation of the α -helical content of P454-derived peptides. The secondary structure content is estimated using the on-line Bestsel software 17 available at http://bestsel.elte.hu/index.php. […]
peptide in buffer A, in 20% TFE and in the presence of POPC POPG (molar ratio 8:2) at 2 mM lipid concentration. The far -UV CD spectra of several P454-derived peptides are shown […]

In data set [1], `CC[C@H](C)[C@H](NC(=O)[C@H](C)NC(=O)[C@H](Cc1c[nH]cn1)NC(=O)[C@@H](NC(=O)[C@H](CC(C)C)NC(=O)[C@H](CCCNC(=N)N)NC(=O)[C@H](CCC(N)=O)NC(=O)[C@H](C)NC(=O)[C@H](C)NC(=O)[C@H](C)NC(=O)[C@@H](NC(=O)[C@H](C)NC(=O)[C@H](CCC(N)=O)NC(=O)[C@H](C)NC(=O)CNC(=O)[C@H](CCC(N)=O)NC(=O)[C@H](CC(C)C)NC(=O)[C@H](C)NC(=O)[C@H](CCCNC(=N)N)NC(=O)[C@H](CCC(N)=O)NC(=O)CNC(=O)[C@H](Cc1c[nH]c2ccccc12)NC(=O)[C@H](Cc1c[nH]cn1)NC(=O)[C@H](C)NC(=O)[C@H](CO)NC(=O)[C@H](C)NC(C)=O)C(C)C)C(C)C)C(=O)N[C@@H](C)C(=O)N[C@@H](CC(C)C)C(=O)N[C@@H](CCSC)C(=O)N[C@H](C(=O)N[C@@H](CCC(N)=O)C(N)=O)[C@@H](C)O` [P454] displayed a Sedimentation coefficient of 0.65 S. Moreover, the “Partition coefficient KX” value in data set [2] (POPC:POPG 8:2 SUVs, buffer A pH 7.4, 25 °C, tryptophan fluorescence ratio 330/370 nm, S.D. within ± 10%) was 790 ×10^3. For the same compound, the “Partition coefficient Kx” value in data set [2] (POPC:POPG 8:2 membranes) is recorded as 790 000. Further, the Kd (in general, the constant that tells how readily two partners part at equilibrium) in data set [2] (converted from KX: [W]/KX = Kd, [W] = 55.5 M, read-out: Kd for POPC:POPG 8:2) was 70 µM. In data set [2] (∆GKx = -RT Ln Kx, S.D. within ± 10%), the “∆GKx for POPC POPG 8:2” value was -8 kcal/mol. Further, in data set [3] (ANTS:DPX LUVs POPC:POPG 8:2, 0.45 mM lipid, buffer A pH 7.4, 25 °C, ex 390/em 515 nm, S.D. ± 5%), the “CP1/2, peptide concentration required to induce recovery of 50% of ANTS fluorescence intensity upon LUVs permeabilization” value was found to be 0.07 µM. The “Effect of holo-CaM addition on peptide-induced vesicle permeabilization” value in data set [3] (LUVs 0.45 mM lipid, buffer B (2 mM CaCl2), peptide:CaM molar ratio 1:3) is listed as “immediately stopped”. The “alpha-helical content, TFE 20%” value in data set [4] (20% TFE) is recorded as 60 ± 2%. Besides, the “alpha-helical content, POPC:POPG 8:2” value in data set [4] (SUVs POPC:POPG 8:2 at 2 mM lipid) came out at 50 ± 1%. The “alpha-helical content, Solution” value in data set [4] (buffer A) turned out to be 17 ± 2%.
